In publication PMC2632993, “Conformational changes in α7 acetylcholine receptors underlying allosteric modulation by divalent cations” (BMC Pharmacology, 2009):

How the values were obtained:
Test in all cases: MTSEA thiol modification rate (SCAM) from ACh-evoked currents in oocytes
Format in all cases: cell-based, chick
Conditions in all cases: 10 mM Ba^2+
[1] = target: α7 AChR M^37C mutant (C^115A/L^247T background) (Gallus gallus, UniProt P22770, C138A/L270T/M60C)
Method: (§1) ACh-evoked current amplitudes decreased following brief, repeated exposure to a limiting concentration of MTSEA (5 μM, 15 seconds). To ensure that the modification reactions were complete, all rate measurements included a final prolonged application of ~100-fold higher concentrations of MTSEA (Fig. 3A and 3B, right). Currents measured following this application represent the endpoint of the reaction between MTSEA and receptors. When the same protocol included Ba^2+ pretreatment and co-application with MTSEA (see Methods), the decreases in current amplitudes were slowed but the same endpoint was obtained (Fig. 3B). Normalized current amplitudes were plotted as a function of the cumulative time of exposure to MTSEA, and pseudo first-order rates were extracted from the single-exponential fits (Fig. 3C).
(§2) Figure 3 Barium slows the rate of MTSEA modification at M^37C. Example of experimental paradigm used to assess Ba^2+ effects on modification rates. […] Endpoints of MTSEA modification are determined by prolonged application of 500 μM MTSEA (right). (B) The same protocol, including Ba^2+ pretreatment and co-application with MTSEA. Current traces are truncated in both (A) and (B) between consecutive MTSEA applications; in all cases the currents were allowed to return to baseline prior to the next application of MTSEA ± ACh. (C) Peak current amplitudes from (A) and (B) are normalized and plotted versus total MTSEA exposure time. Data from this single experiment (no error bars) are fitted to a single-exponential decay (solid line) to extract an apparent pseudo first-order rate constant. The pseudo first-order rate constants calculated in this experiment were 0.011 s^-1 and 0.0019 s^-1 for control (A) and +Ba^2+ (B) measurements, respectively. Second-order rate constants are calculated from these values (Figures 4–6; Table 2).
(§3) Oocytes were superfused in normal extracellular solution containing a reduced Ca^2+ concentration (ESLC; 96 mM NaCl, 2 mM KCl, 1 mM MgCl2, 0.1 mM CaCl2, and 10 mM HEPES, pH 7.5). This solution minimized Ca^2+ influx and eliminated Ca^2+-activated chloride currents. Two-electrode voltage clamp was performed with a GeneClamp 500B controlled by pCLAMP8 software (Molecular Devices, Sunnyvale, CA). Electrodes were filled with 3 M KCl contacting Ag-AgCl wires and had resistances of 0.5 to 2.0 MΩ. Currents were recorded at a constant holding potential of -60 mV. Currents were low pass filtered at 50 Hz and sampled at 100 Hz. Agonist dose-response curves were obtained as described previously, and data were fit to the Hill equation using Origin software (Microcal Software, Northampton, MA).
(§4) MTSEA was prepared daily in distilled water and stored on ice. Stock solution was diluted to the appropriate working concentration in ESLC immediately before each application. […] The limiting dose, yielding 20–40% of the maximal MTSEA effect, was identified for each mutant. […] To measure the effect of Ba^2+ on modification rates we pre-applied 10 mM Ba^2+ for 30 seconds prior to co-application of 10 mM Ba^2+ plus MTSEA. This concentration of Ba^2+ is equivalent to an approximate […] for the modulatory effects in both parental and mutant AChRs. Kinetic data were analyzed as described previously; rate data were fit to a single exponential to extract a pseudo-first order rate constant; this was divided by the MTSEA concentration used to determine the second order rate constant for thiol modification.

[2] = target: α7 AChR E^44C mutant (C^115A/L^247T background) (Gallus gallus, UniProt P22770, C138A/E67C/L270T)
Method: as §1, §2, §3, §4

[3] = target: α7 AChR E^172C mutant (C^115A/L^247T background) (Gallus gallus, UniProt P22770, C138A/E195C/L270T)
Method: as §1, §2, §3, §4

[4] = target: α7 AChR N^52C mutant (C^115A/L^247T background) (Gallus gallus, UniProt P22770, C138A/L270T/N75C)
Method: as §1, §2, §3, §4

[5] = target: T1, α7 AChR M^40C mutant (C^115A/L^247T background) (Gallus gallus, UniProt P22770, C138A/L270T/M63C)
T1 construct: expressed in transfected cells; host or cells: Xenopus laevis oocytes injected with cRNA
Method: as §1, §2, §3, §4

[6] = target: α7 AChR M^40C/E^172Q mutant (C^115A/L^247T background) (Gallus gallus, UniProt P22770, C138A/E195Q/L270T/M63C)
Method: as §1, §2, §3, §4

[7] = target: α7 AChR N^170C mutant (C^115A/L^247T background) (Gallus gallus, UniProt P22770, C138A/L270T/N193C)
Method: as §1, §2, §3, §4

[Ba+2].[Cl-].[Cl-] [Ba^2+, BaCl2]
effect of Ba^2+ on MTSEA modification rate [1]: significant decreases | effect of Ba^2+ on MTSEA modification rate [2]: significant Ba^2+-dependent decreases | effect of Ba^2+ on MTSEA modification rate [3]: significant Ba^2+-dependent decreases | effect of Ba^2+ on MTSEA modification rate [4]: no significant effect | effect of Ba^2+ on MTSEA modification rate [5]: significant decreases | effect of Ba^2+ on MTSEA modification rate [6]: significant slowing | effect of Ba^2+ on MTSEA modification rate [7]: the same as that measured in MTSEA alone
